From patent US20040121357A1, “Artificial endonuclease” (priority 2004, published 2004)
Entries after “also recorded” stand apart in the source; their conditions may differ. Where no end group is shown, it is not given here.

What was measured:
[1] = tested on: supercoiled plasmid DNA; assay: Cleavage of supercoiled plasmid DNA, agarose gel electrophoresis; assay type: biochemical; conditions: for Dependence of cleavage activity on concentration (in words): increasing metallopeptide concentration
Method: FIG. 8. […] Samples containing 1 μg plasmid (about 60 μM b.p.) in 10 mM Tris buffer, pH=7.0, were incubated for 48 hours at 37° C. Reactions were quenched by the addition of 0.5 M EDTA to a final concentration of 10 mM, followed by addition of 100 mM KCl. The reaction mixtures were then treated with Amberlyst cation exchange resin prior to electrophoresis. Lane 1: pUC19 DNA control; lanes 2-5: DNA plus increasing concentrations of EuC13 (20, 30, 50 and 100 μM); lanes 6-9: DNA plus increasing concentrations of free P3 (20, 30, 50 and 100 μM); lanes 10-15: DNA plus increasing concentrations of 1:1 Eu:P3 (10, 20, 30, 40, 50 and 100 μM).
The conversion of supercoiled plasmid (type I) to open circular (type II), linear (type III), or smaller fragments was monitored by agarose gel electrophoresis. Because the synthetic peptides bind strongly to DNA, thus preventing the observation of products, the peptides were chelated prior to electrophoresis (Falke et al., 1994). At the point each reaction was quenched (0.1 M EDTA), a suspension of neutral, washed, cation resin (Amberlyst, 10-20 μL) was incubated with each sample for 30 minutes, spun down, and the supernatent loaded into wells. After 24 hours of reaction (incubated at 37° C.), the concentration-dependent formation of open circular plasmid was observed (FIG. 8). […] Over a 10-300 μM EuP3 gradient, nicking occurred from 10-150 μM, with the greatest amount of cleavage at 30 μM EuP3.

[2] = Hydrolysis of bis-nitrophenylphosphate (BNPP) followed spectrophotometrically at 400 nm; assay type: biochemical; conditions: for Rates (K(obs)) of BNPP cleavage: 500 μM BNPP, 37° C.
From the text: To test hydrolytic activity, the hydrolysis of binitrophenylphosphate (BNPP) is followed. The absorbance increase at 400 nm is due to liberated 4-nitrophenolate which can be monitored over time to give rate constants. The rate reflects the relative accessibility and reactivity of the active site, and can be compared to the rates observed for the hydrolytically active peptide or polypeptide.
Hydrolytic Phosphate Cleavage. Because the EF-Hand is physiologically strictly a structural motif, an isolated Ca-binding loop's ability to affect hydrolytic cleavage was addressed. The hydrolysis of bis-nitrophenylphosphate (BNPP) was followed spectrophotometrically under turnover conditions. The absorbance increase at 400 nm due to liberated 4-nitrophenolate was observed over the initial 10-14 hours of the reaction (<10% BNPP converted). […] Plots of absorbance vs. time were converted to concentration units (ε=18,500 M^−1 cm^−1) to give first order rate constants (Sardesai et al., 1994).

[3] = tested on: ^32P-labeled fragment of pBR322; assay: Cleavage of 32P-labeled DNA fragment, acrylamide gel electrophoresis; assay type: biochemical; conditions: 40 μM Ce^4+, 37° C. overnight
Method: FIG. 10. Sequence specificity of artificial endonucleases. […] Controls (water) were conducted to measure background cleavage. […] Minor products run with Maxam-Gilbert lanes.
Sequence Selective DNA Cleavage. […] This cleavage is not dependent on the strain inherent in supercoiled plasmid, as cleavage of linearized ^32P-labeled DNA oligonucleotides was observed as well. Labeled fragments were incubated with Ce(NH3)6(NO3)4 and varying concentrations of peptides P3 or P3W at 37° C. overnight and analyzed by acrylamide gel electrophoresis (FIG. 10). Cleavage was concentration dependent, and distinct between metallopeptides.

[4] = tested on: supercoiled plasmid DNA (pBR322); assay: DNA gel shift assay (agarose gel electrophoresis); assay type: binding; conditions: for Gel shift / affinity for supercoiled plasmid DNA (in words): 5-25 μM ligand, 15 minutes, room temperature
Method: DNA Gel Shift Assays. The affinity of EuP3, EuP2, and each free peptide for supercoiled plasmid DNA was examined by agarose gel electrophoresis. Plasmid (pBR322, New England Biolabs, Inc.) was incubated for 15 minutes at room temperature with increasing concentrations of each ligand (5-25 μM), prior to the addition of loading dye. Each lane contained 1 μg plasmid (50 μM base pairs) in 10 mM Tris buffer at pH 8.0. […] The interaction of ligand with supercoiled plasmid (type I) can be observed if run under conditions where the DNA-ligand interactions are not disturbed during electrophoresis. Supercoiled pBR322 was chosen as a standard plasmid, and was incubated for 15 minutes with EuCl3, EuP3, EuP2, or free peptide prior to electrophoresis. This small, 4,361 bp plasmid contains three [NT] sequences, and eight […] sequences, partial target sequences for engrailed homeodomain. In the absence of 0.1 M EDTA (normally added prior to electrophoresis to quench hydrolytic cleavage assays) and with short incubation times to minimize metal-catalyzed cleavage, a gel shift can be observed. […] From quantified concentration-dependent gel shift data, an estimate of the binding affinity of EuP3 can be made. Gels with increasing Eu-peptide concentrations (5 to 25 μM in each set) were quantified (ImageQuant; Molecular Simulations), and average band volumes were plotted versus concentration. […] Each graphed point represents data averaged from three gel experiments.

[5] = Circular dichroism titration of peptides with Eu(III) (incl. TFE helix induction); conditions: initial portion of the curve (0-50 μM Eu(III)); read-out: Metal binding affinity (K1, Kd) estimated from CD titration
[6] = target: the molecule itself; assay: dimerization constant of Eu(III)-bound P3 (self-association); isothermal titration microcalorimetry
[7] = target: the molecule itself; assay: dimerization constant (self-association) from CD titration of P3 with Eu(III), helicity at 222 nm
Method: Circular Dichroism Titrations. The titration of P2 and P3 peptides with Eu(III) and Ca(II) was followed by circular dichroism spectroscopy on an Aviv 60DS spectrophotometer at 25° C. Samples (50 μM peptide) were scanned from 260 to 200 nm (0.1 mm pathlength cell, 1.0 nm bandwidth, 0.5 nm resolution), in 10 mM Tris(hydroxymethyl)aminomethane buffer (Tris; pH=7.8). Eu(III) and Ca(II) were added as the chlorides. Aliquots of 10 mM stock metal solutions were added to a maximum of 10 equivalents.
The secondary structure of P3 as a function of metal was followed by CD, calculating the % α-helicity from the molar ellipticity at 222 nm (100% helical=−31,500 deg cm² dmol⁻¹). With the addition of Eu(III) to P3, the helicity increases from 9 to 25%, showing enhanced structure correlated to metal-coordination. This increase in structure with added metal describes a curve which has an inflection point at approximately 1:1 Eu:P3, then continues to a 25% helical metal-saturated form. […] A second structural change, correlating to the discrete back-to-back dimerization which has been well characterized for similar EF-Hand peptides systems occurs at Kdim about 80 μM (Shaw et al., 1991; Wójcik et al., 1997; Clarke et al., 1993; Shaw et al., 1990; Maurer et al., 1995). […]

[8] = target: the molecule itself; assay: dimerization constant of Eu(III)-bound P4a (self-association); called 'measured', method not stated
[9] = 10 μM Eu/10 μM peptide, pH 7.7, 10 mM Tris
[10] = 25 μM Eu/25 μM peptide, pH 7.7, 10 mM Tris
[11] = 25 μM Eu/50 μM peptide, pH 7.7, 10 mM Tris
[12] = 10-300 μM EuP3 gradient, 37° C.

EuP4a: Eu(III)-bound peptide P4a (TERRRFDKDGNGYISAAELRHVKIWFQNKRAKIK)
Dependence of cleavage activity on concentration (in words) [1]: does not
Rates (K(obs)) of BNPP cleavage [2, 9]: 11.3 s^−1 × 10^7
Rates (K(obs)) of BNPP cleavage [2, 10]: 56.3 s^−1 × 10^7
Rates (K(obs)) of BNPP cleavage [2, 11]: 62.0 s^−1 × 10^7
Rates (K(obs)) of BNPP cleavage ([2]; 50 μM Eu/50 μM peptide, pH 7.7, 10 mM Tris): 149.5 s^−1 × 10^7
Rates (K(obs)) of BNPP cleavage ([2]; 50 μM Eu/100 μM peptide, pH 7.7, 10 mM Tris): 212.0 s^−1 × 10^7

O=[N+]([O-])[O-].O=[N+]([O-])[O-].O=[N+]([O-])[O-].O=[N+]([O-])[O-].O=[N+]([O-])[O-].O=[N+]([O-])[O-].[Ce+4].[NH4+].[NH4+] [Ce^4+, (NH4)2 Ce(NO3)6]
Regioselectivity of cleavage: termini produced [3]: both 3′ and 5′ termini

[Cl][Eu]([Cl])[Cl] [EuCl3, reference compound]
Gel shift / affinity for supercoiled plasmid DNA (in words) [4]: not
Rates (K(obs)) of BNPP cleavage ([2]; 10 μM Eu/0 μM peptide, pH 7.7, 5 mM Tris): 5.2 ± 0.6 s^−1 × 10^7
Rates (K(obs)) of BNPP cleavage ([2]; 10 μM Eu/0 μM peptide, pH 7.7, 10 mM Tris): 1.4 s^−1 × 10^7
Rates (K(obs)) of BNPP cleavage ([2]; 12 μM Eu/0 μM peptide, pH 7.7, 5 mM Tris): 5.7 ± 0.3 s^−1 × 10^7
Rates (K(obs)) of BNPP cleavage ([2]; 15 μM Eu/0 μM peptide, pH 7.7, 10 mM Tris): 2.0 s^−1 × 10^7
Rates (K(obs)) of BNPP cleavage ([2]; 20 μM Eu/0 μM peptide, pH 7.7, 5 mM Tris): 19 ± 3 s^−1 × 10^7
Rates (K(obs)) of BNPP cleavage ([2]; 20 μM Eu/0 μM peptide, pH 7.7, 10 mM Tris): 2.7 s^−1 × 10^7

EuP3: Eu(III)-bound peptide P3 (1:1 Eu-peptide) (TERRRQQLDKDGDGTIDEREIKIHFQNKRAKIK)
Kd [5]: ≤ 20 µM
Concentration range in which nicking occurred [1, 12]: 10 to 150 µM
Concentration with the greatest amount of cleavage [1, 12]: 30 µM
Cleavage of supercoiled plasmid DNA (in words) ([1]; 37° C., pUC19 for EuP3, Eu(III) and Ce(IV) complexes for P3W): catalyzes the cleavage of supercoiled, double-stranded DNA; also recorded: cleavage of pUC19 plasmid DNA
Dependence of cleavage activity on concentration (in words) [1]: falls off with increasing concentration
Concentration causing a gel shift of supercoiled plasmid DNA ([4]; 50 μM base pairs): ≥ 10 µM
Gel shift / affinity for supercoiled plasmid DNA (in words) [4]: significant affinity for supercoiled plasmid DNA; also recorded: gel shift and disappearance of type I plasmid occurs; also recorded: DNA-binding affinity in the micromolar regime; also recorded: disappearance of type I band
Estimate of DNA binding affinity from quantified gel shift data ([4]; disappearance of type I band, 5 to 25 μM, average of three gels): ~20 µM
BNPP catalysis compared with free Eu(III) (in words) [2]: may not be as fast as free Eu(III) catalysis
Rates (K(obs)) of BNPP cleavage [2, 9]: 6.0 s^−1 × 10^7
Rates (K(obs)) of BNPP cleavage [2, 10]: 7.3 s^−1 × 10^7
Rates (K(obs)) of BNPP cleavage [2, 11]: 20.6 s^−1 × 10^7
Rates (K(obs)) of BNPP cleavage ([2]; 50 μM Eu/50 μM peptide, pH 7.7, 5 mM Tris): 17.5 ± 4 s^−1 × 10^7
Rates (K(obs)) of BNPP cleavage ([2]; 50 μM Eu/100 μM peptide, pH 7.7, 5 mM Tris): 11.5 ± 4 s^−1 × 10^7

B1: P3 (peptide)
peptide: TERRRQQLDKDGDGTIDEREIKIHFQNKRAKIK
modifications: also: Eu(III) complex, Eu(III) organizes two peptides into back-to-back dimer
notes: In the dimerization experiments it stood with Eu(III) (EuCl3); The entry describes the monomer; also called EuP3; peptide P3
Kd [6]: ≥ 80 µM
Kd [7]: ~80 µM

B2: P4a (peptide)
peptide: TERRRFDKDGNGYISAAELRHVKIWFQNKRAKIK
modifications: also: Eu(III) complex, dimer EuP4a2
notes: The entry describes the monomer; also called EuP4a; EuP4a2 (dimer)
Kd [8]: ≥ 300 µM
